According to PMC10762250, “Molecular mechanism of antihistamines recognition and regulation of the histamine H1 receptor” (Nature Communications, 2024):

Columns and labels:
H1R-H450A [1] = biological target: T1, H1R-H450A (Homo sapiens, UniProt P35367, H450A); test: cell-based
Procedure: (§1) HEK293 cells were seeded into 24-well culture plates (Corning) at a density of 0.1 million per well and incubated overnight at 37 °C with 5% CO2. […] Twenty-four hours after transfection, the culture media was removed, and transfected cells were harvested and washed with Dulbecco’s phosphate buffered saline (DPBS) buffer (Gibco) twice and then resuspended in Hank’s balanced salt solution (HBSS) buffer (Beyotime) at a density of 1.0 × 10^6 cells per milliliter. […] The accumulation of IP1 was calculated according to a standard dose–response curve in GraphPad Prism 8 (GraphPad Software). Data are represented as the mean ± SEM, n = 3 independent samples.

[2] = test system: non-H1R targets, including the potassium channel; conditions: cited from earlier work
H1R-H450A [3] = biological target: T1, H1R-H450A; conditions: H450A vs wild type
Procedure: as §1

hERG potassium channel = conditions: cited from earlier work
H1R Y108^3.33 mutant = test system: H1R Y108^3.33 mutant; design: method as in PMID 25013351; conditions: Y108 single mutation; cited from earlier work
H1R Y431^6.51 mutant = test system: H1R Y431^6.51 mutant; design: method as in PMID 25013351; conditions: Y431 single mutant; cited from earlier work
H1R W428^6.48 mutant = test system: H1R W428^6.48 mutant; design: method as in PMID 25013351; conditions: W428 single mutation; cited from earlier work
guinea pig H1R F436A = conditions: cited from earlier work
H1R F432^6.52 mutant = test system: H1R F432^6.52 mutant; design: method as in PMID 25013351; conditions: F432 single mutation; cited from earlier work
H1R N198A = conditions: cited from earlier work
H1R F199^5.47 mutant = test system: H1R F199^5.47 mutant; design: method as in PMID 25013351; conditions: F199 single mutation; cited from earlier work
H1R W158^4.56 mutant = test system: H1R W158^4.56 mutant; design: method as in PMID 25013351; conditions: W158 single mutation; cited from earlier work

T1 sequence (P35367 whole entry H450A): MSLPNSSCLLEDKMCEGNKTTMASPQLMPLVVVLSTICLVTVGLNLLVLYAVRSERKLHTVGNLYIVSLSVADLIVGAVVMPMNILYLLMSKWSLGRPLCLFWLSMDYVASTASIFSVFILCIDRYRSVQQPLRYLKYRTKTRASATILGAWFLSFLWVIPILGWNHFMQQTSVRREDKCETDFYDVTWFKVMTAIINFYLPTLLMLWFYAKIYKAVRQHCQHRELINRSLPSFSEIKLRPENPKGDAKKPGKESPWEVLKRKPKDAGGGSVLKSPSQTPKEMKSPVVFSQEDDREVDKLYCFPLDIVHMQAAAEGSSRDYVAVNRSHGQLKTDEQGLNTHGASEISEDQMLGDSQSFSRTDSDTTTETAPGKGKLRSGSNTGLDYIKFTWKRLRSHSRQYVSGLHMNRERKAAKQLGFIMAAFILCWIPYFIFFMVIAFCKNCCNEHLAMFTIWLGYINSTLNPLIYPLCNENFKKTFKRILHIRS

SMILES: CN(c1nccc(=O)[nH]1)C1CCN(c2nc3ccccc3n2Cc2ccc(F)cc2)CC1 [mizolastine]
- Emax (H1R-H450A [1]): 36.1 ± 4.94%
- IC50 (H1R-H450A [1]): 5.14 ± 0.13 nM
- Cross-interaction with non-H1R targets [2]: does not cross-interact with any non-H1R targets
- Effect of mutation on ability/efficacy to inhibit H1R signaling (H1R-H450A [3]): obviously crippled

SMILES: COc1ccc(CCN2CCC(Nc3nc4ccccc4n3Cc3ccc(F)cc3)CC2)cc1 [astemizole]
- hERG potassium channel block (hERG potassium channel): blocks

SMILES: COc1ccc(CN(CCN(C)C)c2ccccn2)cc1 [mepyramine]
- Effect of mutation on binding activity (H1R Y108^3.33 mutant): completely disrupted
- Effect of mutation on binding activity (H1R Y431^6.51 mutant): completely disrupted
- Effect of mutation on H1R affinity (H1R W428^6.48 mutant): abolished
- Decrease in affinity by mutation (guinea pig H1R F436A): 20 fold
- Effect of mutation on H1R affinity (H1R F432^6.52 mutant): abolished
- Effect of mutation on affinity (H1R N198A): did not cause obvious affinity loss
- Effect of mutation on H1R affinity (H1R F199^5.47 mutant): abolished
- Effect of mutation on binding activity (H1R W158^4.56 mutant): completely disrupted
